Experiment [1] addresses T1, TRPC6 (Homo sapiens, UniProt Q9Y210).
T1 construct: expressed in transfected cells
T1 sequence (Q9Y210 1-931): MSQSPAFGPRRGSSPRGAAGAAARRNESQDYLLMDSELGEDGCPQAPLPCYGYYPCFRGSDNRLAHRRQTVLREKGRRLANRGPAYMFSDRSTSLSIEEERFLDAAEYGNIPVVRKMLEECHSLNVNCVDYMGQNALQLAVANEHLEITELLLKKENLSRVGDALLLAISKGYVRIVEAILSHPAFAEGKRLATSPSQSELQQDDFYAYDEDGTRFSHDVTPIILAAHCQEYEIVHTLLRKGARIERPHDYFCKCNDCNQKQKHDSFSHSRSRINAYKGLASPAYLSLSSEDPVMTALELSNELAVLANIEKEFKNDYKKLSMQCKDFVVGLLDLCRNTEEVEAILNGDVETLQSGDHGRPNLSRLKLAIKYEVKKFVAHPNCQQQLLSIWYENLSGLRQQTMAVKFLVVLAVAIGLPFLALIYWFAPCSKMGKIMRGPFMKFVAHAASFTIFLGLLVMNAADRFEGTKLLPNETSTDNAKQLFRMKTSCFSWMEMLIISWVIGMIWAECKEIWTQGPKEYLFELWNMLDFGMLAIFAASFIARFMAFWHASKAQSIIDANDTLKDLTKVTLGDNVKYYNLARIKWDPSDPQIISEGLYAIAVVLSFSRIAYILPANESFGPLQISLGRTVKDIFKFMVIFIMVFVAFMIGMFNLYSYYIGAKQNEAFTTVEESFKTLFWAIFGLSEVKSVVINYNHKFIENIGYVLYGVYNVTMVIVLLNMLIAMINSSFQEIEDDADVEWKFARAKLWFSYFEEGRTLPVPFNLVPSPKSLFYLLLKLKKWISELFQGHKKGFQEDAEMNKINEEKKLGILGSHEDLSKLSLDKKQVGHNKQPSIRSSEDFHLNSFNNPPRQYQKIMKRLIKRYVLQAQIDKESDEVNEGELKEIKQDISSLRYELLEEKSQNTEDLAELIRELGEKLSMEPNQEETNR
Nature of the experiment: FLIPR calcium entry in TRPC6-expressing cells stimulated by hyperforin. Format: cell-based. The following applies: read-out: IC50, hyperforin-induced TRPC6-mediated calcium entry (Fig. 3). The protocol:
(§1) Using this approach, we tested several other structurally related compounds to get a first view on the structure-function relationships of TRPC6.
A) The chemical structures of the tested compound is shown. […] Calcium entry was measured using FLIPR^Tetra and data analysed as described in Jörs et al.. The data were calculated from one experiment of at least three experiments performed in quadruplicates per concentration and TRP channel.
(§2) Calcium entry was measured using FLIPR^Tetra and data analysed as described in Jörs et al.. The data were calculated from one experiment of at least three experiments performed in quadruplicates per concentration and TRP channel.

Another experiment has as its target T2, TRPM3 (Homo sapiens, UniProt Q9HCF6).
T2 construct: expressed in transfected cells
Nature of the experiment: FLIPR calcium entry in TRPM3-expressing cells stimulated by pregnenolone sulphate. It counts as cell-based. The following applies: fluo-4-loaded cells, pregnenolone sulphate (35 µM), FLIPR Tetra; read-out: IC50 to block TRPM3. The protocol: as §1, §2

The target of a further experiment is T3, TRPV4 (Homo sapiens, UniProt Q9HBA0).
T3 construct: expressed in transfected cells
Nature of the experiment: FLIPR calcium entry in TRPV4-expressing cells stimulated by 4α-phorbol-didecanoate. Format: cell-based. To be noted: fluo-4-loaded cells, 4α-phorbol-didecanoate (5 µM), FLIPR Tetra; read-out: IC50 to block TRPV4. The protocol:
as §1, §2

In a further experiment the target is T4, Drosophila TRPγ (Drosophila melanogaster, UniProt Q9VJJ7).
T4 construct: expressed in transfected cells
T4 sequence (Q9VJJ7 1-1128): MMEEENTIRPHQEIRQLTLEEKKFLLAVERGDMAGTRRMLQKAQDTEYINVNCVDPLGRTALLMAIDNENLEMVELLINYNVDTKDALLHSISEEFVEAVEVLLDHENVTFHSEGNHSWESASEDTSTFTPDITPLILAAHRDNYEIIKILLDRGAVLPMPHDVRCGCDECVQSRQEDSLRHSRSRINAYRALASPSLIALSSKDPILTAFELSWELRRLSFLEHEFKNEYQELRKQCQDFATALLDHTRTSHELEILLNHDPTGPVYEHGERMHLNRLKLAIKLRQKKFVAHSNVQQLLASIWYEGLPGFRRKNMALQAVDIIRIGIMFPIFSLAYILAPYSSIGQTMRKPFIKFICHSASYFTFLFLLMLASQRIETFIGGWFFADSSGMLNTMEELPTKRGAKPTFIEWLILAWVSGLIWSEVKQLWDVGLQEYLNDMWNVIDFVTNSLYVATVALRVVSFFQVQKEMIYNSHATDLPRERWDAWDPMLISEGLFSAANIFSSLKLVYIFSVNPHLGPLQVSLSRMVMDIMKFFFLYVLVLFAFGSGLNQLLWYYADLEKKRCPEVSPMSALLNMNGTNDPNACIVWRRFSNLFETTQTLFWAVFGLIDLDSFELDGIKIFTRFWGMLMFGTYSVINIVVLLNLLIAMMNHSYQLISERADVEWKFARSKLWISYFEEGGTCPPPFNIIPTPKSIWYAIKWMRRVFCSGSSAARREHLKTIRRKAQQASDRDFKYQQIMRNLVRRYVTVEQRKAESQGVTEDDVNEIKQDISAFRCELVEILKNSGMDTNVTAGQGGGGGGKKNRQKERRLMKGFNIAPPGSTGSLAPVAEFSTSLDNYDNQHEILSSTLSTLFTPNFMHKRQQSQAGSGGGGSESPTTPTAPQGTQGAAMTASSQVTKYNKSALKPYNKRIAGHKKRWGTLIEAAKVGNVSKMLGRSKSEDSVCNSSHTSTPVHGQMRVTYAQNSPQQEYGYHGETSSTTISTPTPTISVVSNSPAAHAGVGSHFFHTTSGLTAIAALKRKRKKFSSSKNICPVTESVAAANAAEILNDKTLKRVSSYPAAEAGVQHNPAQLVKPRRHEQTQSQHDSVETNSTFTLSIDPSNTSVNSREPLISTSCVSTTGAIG
The experiment is described as follows: FLIPR calcium entry in TRPγ-expressing cells stimulated by eicosatetraynoic acid. It counts as cell-based. The following applies: fluo-4-loaded cells, eicosatetraynoic acid (20 µM), FLIPR Tetra; read-out: IC50 to block Drosophila TRPγ. The protocol: as §1, §2

Experiment [2] has as its system TRPC3. The arrangement: method as in PMID 9368034, PMID 10970899. The following applies: read-out: half-maximal concentration necessary for TRPC3 inhibition; cited from earlier work.
Experiment [3] deals with T1, TRPC6. The arrangement: method as in PMID 9368034, PMID 10970899. The following applies: read-out: concentration needed to block TRPC6; cited from earlier work.
Experiment [4] concerns the target receptor-mediated calcium entry. Details: method as in PMID 2173565. To be noted: platelets, neutrophils and endothelial cells; read-out: IC50, block of ADP-induced calcium entry; cited from earlier work.
For experiment [5], the target named is T1, TRPC6. Details: method as in earlier work. The following applies: 100 µM SKF-96365; ref 12 (Boulay et al.); cited from earlier work.
Experiment [6] has as its system TRPC3. The arrangement: method as in PMID 12700192. To be noted: 100 µM; human myometrial cells; cited from earlier work.

The values below come from paper PMC3267170, “Pharmacological Modulation of Diacylglycerol-Sensitive TRPC3/6/7 Channels” (Current Pharmaceutical Biotechnology, 2011).

The structures appear in SMILES notation. Where two headings read alike, the source gives them in different places. Some results are limits rather than exact numbers.

T2 sequence (Q9HCF6 whole entry, species assumed): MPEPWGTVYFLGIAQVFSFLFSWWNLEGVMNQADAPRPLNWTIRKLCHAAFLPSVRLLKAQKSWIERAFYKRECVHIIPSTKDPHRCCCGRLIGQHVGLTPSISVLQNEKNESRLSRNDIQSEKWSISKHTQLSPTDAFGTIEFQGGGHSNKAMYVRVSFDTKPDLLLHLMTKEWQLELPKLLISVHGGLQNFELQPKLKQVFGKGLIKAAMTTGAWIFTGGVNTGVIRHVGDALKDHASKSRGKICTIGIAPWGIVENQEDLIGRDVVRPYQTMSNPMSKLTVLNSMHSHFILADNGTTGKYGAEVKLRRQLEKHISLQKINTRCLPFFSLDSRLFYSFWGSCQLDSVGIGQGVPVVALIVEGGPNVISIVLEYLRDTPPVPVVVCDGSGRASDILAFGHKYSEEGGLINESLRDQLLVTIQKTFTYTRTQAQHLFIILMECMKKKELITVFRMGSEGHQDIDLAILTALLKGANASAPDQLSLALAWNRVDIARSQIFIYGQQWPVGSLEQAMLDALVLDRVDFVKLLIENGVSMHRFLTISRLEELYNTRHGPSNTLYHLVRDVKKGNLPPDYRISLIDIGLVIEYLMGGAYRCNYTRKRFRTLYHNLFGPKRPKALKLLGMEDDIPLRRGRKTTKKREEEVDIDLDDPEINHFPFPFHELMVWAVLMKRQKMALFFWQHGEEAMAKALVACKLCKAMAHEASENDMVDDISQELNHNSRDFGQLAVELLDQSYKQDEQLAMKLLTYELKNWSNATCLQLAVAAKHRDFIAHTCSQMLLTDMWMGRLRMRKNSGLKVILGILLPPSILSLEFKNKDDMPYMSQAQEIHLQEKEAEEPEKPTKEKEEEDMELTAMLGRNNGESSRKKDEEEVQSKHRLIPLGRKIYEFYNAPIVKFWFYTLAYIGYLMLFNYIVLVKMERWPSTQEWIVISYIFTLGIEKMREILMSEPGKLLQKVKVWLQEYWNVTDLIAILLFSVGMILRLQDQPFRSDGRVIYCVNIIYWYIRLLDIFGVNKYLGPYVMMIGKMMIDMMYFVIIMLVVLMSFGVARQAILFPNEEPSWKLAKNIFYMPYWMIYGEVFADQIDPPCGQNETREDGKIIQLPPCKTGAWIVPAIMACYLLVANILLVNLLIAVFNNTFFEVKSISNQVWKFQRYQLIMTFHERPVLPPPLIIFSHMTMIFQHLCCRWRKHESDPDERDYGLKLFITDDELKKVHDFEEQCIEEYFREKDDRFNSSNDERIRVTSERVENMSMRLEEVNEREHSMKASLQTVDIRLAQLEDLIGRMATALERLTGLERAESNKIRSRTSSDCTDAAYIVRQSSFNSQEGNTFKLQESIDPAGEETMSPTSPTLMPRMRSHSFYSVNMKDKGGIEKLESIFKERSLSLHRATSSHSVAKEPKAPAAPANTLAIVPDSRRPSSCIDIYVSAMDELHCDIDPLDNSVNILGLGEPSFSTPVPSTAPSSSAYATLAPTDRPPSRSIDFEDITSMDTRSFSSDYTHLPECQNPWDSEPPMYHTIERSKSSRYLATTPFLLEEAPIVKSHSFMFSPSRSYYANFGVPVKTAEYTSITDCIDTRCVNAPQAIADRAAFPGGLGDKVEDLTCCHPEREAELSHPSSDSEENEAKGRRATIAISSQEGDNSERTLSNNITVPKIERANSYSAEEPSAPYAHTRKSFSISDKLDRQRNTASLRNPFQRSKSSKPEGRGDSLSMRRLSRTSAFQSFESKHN
T3 sequence (Q9HBA0 whole entry, species assumed): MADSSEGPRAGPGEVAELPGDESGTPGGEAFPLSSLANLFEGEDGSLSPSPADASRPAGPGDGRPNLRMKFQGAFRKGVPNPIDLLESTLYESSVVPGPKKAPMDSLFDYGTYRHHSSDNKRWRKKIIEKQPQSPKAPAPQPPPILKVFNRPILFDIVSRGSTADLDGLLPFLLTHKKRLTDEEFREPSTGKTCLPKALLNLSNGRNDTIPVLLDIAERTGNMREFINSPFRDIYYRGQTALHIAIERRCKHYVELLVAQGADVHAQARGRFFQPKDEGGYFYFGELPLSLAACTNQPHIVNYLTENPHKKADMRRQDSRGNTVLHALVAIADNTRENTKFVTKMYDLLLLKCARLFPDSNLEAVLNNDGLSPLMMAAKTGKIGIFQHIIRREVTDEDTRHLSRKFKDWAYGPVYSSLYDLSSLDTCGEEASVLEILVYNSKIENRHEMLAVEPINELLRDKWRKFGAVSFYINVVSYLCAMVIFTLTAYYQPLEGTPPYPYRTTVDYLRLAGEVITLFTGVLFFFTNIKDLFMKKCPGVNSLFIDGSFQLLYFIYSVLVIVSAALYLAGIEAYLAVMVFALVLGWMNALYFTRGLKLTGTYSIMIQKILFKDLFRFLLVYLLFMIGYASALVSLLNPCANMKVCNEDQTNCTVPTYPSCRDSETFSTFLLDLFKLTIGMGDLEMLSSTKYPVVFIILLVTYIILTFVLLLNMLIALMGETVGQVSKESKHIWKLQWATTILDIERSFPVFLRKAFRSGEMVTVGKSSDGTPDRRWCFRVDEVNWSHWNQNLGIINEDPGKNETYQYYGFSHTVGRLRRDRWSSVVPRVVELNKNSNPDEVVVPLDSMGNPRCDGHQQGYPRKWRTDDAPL

For the compound `NCCCCCCCCCCNS(=O)(=O)c1cccc2c(Cl)cccc12` [W-7 decyl], the IC50 at TRPC6 [1] was 29 µM.
Same read-out and setting: the figure for `NCCCCCCNS(=O)(=O)c1ccc2c(Cl)cccc2c1` [W-7 isomer, N-(6-Aminohexyl)-5-chloro-2-naphthalenesulfonamide] is 35 µM.
Regarding `NCCCCCCCCNS(=O)(=O)c1cccc2c(I)cccc12` [J-8, (N-8-Aminooctyl)-5-iodo-1-naphthalenesulfonamide], the IC50 at TRPC6 [1] was 85 µM.
`NCCCCCCNS(=O)(=O)c1cccc2c(Cl)cccc12` [W-7, N-(6-Aminohexyl)-5-chloro-1-naphthalenesulfonamide]: the IC50 at TRPM3 is 15 µM; on TRPV4, 65 µM; on Drosophila TRPγ, 5 µM.
For `O=S(=O)(c1cccc2c(Cl)cccc12)N1CCCNCC1` [ML-9, 1-(5-Chloronaphthalene-1-sulfonyl)-1H-hexahydro-1,4-diazepine], on TRPC6 [1], the IC50 was found to be 36 µM.
On to `[Cl][La]([Cl])[Cl]` [lanthanum chloride], for which the IC50 in the experiment on TRPC3 [2] was 4 µM; at TRPC6 [3], > 50 µM.
In the case of `NCCCCCCNS(=O)(=O)c1cccc2ccccc12` [W-5, N-(6-Aminohexyl)-1-naphthalenesulfonamide], on TRPC6 [1], the IC50 was determined as 20 µM.
For `COc1ccc(CCCOC(Cn2ccnc2)c2ccc(OC)cc2)cc1.Cl` (stereo not drawn) [SKF-96365, 1-{β[3-(4-methoxyphenyl)propoxy]-4-methoxyphenethyl}-1H-imidazole hydrochloride], in [4], the IC50 is ~10 µM. Besides, the “block of heterologously expressed TRPC6” value at TRPC6 [5] was “complete block”. In the experiment with TRPC3 [6], the “block of endogenously expressed TRPC3” value was “effective in blocking”.
